Source: patent US20080009418A1, “Selective Inhibitors” (Alchemia LTD., priority 2004, published 2008)

Legend:
Mouse urotensin (mUR2) = molecular target: T1, Mouse urotensin (mUR2) (Mus musculus, UniProt Q8VIH9); experiment: Radioligand binding, mouse urotensin mUR2 membranes, FlashPlate, [125I]-Urotensin II; conditions: compound at 10 μM; for A11: inhibition of radioligand binding, mouse urotensin (mUR2): [125I]-Urotensin II; for A11 radioligand binding inhibition: mouse urotensin mUR2 membranes
T1 construct: purchased Perkin Elmer Biosignal
T1 sequence (Q8VIH9 1-385): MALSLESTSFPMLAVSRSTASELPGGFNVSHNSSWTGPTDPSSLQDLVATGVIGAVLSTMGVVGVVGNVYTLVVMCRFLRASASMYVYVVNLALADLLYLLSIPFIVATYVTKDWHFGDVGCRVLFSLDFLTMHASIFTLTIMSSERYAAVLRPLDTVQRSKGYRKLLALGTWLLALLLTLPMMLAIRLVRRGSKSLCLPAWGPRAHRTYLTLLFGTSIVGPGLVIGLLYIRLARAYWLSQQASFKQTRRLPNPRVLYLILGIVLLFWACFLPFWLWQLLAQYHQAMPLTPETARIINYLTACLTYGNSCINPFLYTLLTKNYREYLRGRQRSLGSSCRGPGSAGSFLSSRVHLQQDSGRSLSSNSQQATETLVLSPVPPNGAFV
Method in brief: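 Cloned mouse urotensin (mUR2) receptor membranes from Perkin Elmer Biosignal were immobilized in FlashPlate microplates using a proprietary coating. Each well got 19.5 μl buffer, then 0.5 μl of DMSO, reference ligand, or compound. Adding 5 μl of [125I]-Urotensin II, diluted to 5× final concentration in binding buffer, started binding. Plates were sealed with TopSeal-A and incubated 1 hour at room temperature in the dark. Wells were counted for 30 seconds each on a TopCount after a 60-second delay, and percentage inhibition was calculated.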

Human Melanocortin (MC4) = molecular target: T2, Human Melanocortin (MC4) (Homo sapiens, UniProt P32245); experiment: Radioligand binding, human melanocortin MC4 membranes, FlashPlate, [125I]-NDP-αMSH; conditions: compound at 10 μM; for A4: inhibition of radioligand binding, human melanocortin (MC4): [125I]-NDP-αMSH; for A4 radioligand binding inhibition: human melanocortin MC4 membranes
T2 construct: purchased Perkin Elmer Biosignal
T2 sequence (P32245 whole entry): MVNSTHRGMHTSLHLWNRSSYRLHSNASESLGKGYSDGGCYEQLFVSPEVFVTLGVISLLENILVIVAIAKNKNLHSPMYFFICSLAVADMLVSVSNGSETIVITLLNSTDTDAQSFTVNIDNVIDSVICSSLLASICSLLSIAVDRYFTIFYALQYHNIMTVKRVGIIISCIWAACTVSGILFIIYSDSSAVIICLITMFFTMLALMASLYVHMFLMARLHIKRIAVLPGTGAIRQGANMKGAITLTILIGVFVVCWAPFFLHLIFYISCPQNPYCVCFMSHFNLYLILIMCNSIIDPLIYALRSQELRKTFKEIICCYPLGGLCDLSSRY
Method in brief: (§1)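 Cloned human receptor membranes were coated onto FlashPlate wells and incubated with radioligand and compound (added from a 0.5 mM DMSO daughter plate) for 1 hour at room temperature in the dark. Scintillation counting gave percent inhibition, with DMSO defining total and reference ligand defining non-specific binding.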

Human μ-opioid (MOP) = molecular target: T3, Human μ-opioid (MOP) (Homo sapiens, UniProt P35372); experiment: Radioligand binding, human μ-opioid (MOP) membranes, FlashPlate, [3H]-Naloxone; conditions: compound at 10 μM; for A7: inhibition of radioligand binding, human μ-opioid (MOP): [3H]-Naloxone; for A7 radioligand binding inhibition: human μ-opioid (MOP) membranes
T3 construct: purchased Perkin Elmer Biosignal
T3 sequence (P35372 whole entry): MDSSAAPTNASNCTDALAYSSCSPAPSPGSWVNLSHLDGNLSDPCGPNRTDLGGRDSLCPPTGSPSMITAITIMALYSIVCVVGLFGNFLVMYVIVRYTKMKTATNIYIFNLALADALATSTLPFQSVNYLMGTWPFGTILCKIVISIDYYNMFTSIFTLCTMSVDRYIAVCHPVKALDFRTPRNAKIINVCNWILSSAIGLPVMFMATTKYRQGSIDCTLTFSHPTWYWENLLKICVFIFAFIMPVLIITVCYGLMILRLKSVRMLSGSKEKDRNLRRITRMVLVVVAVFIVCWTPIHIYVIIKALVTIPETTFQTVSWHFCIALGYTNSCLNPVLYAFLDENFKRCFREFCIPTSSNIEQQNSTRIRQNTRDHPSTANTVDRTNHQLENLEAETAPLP
Method in brief: as §1

[1] = molecular target: T4, Human melanin-concentrating hormone (MCH1) (Homo sapiens, UniProt Q99705); experiment: Radioligand binding, human melanin-concentrating hormone MCH1 membranes, FlashPlate, [125I]-S36057; conditions: compound at 10 μM; for A6: inhibition of radioligand binding, human melanin-concentrating hormone (MCH1): [125I]-S36057; for A6 radioligand binding inhibition: human MCH1 membranes
T4 construct: purchased Perkin Elmer Biosignal
T4 sequence (Q99705 whole entry): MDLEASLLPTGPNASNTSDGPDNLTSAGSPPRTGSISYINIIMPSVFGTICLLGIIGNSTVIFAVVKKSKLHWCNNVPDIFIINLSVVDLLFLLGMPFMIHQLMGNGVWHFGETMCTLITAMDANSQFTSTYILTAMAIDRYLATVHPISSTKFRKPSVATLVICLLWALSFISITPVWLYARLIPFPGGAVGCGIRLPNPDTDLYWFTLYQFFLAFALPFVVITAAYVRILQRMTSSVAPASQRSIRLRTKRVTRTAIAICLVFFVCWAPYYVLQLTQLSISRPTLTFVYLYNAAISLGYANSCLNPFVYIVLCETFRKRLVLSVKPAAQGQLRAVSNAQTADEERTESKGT
Method in brief: as §1

Human neurokinin (NK1) = molecular target: T5, Human neurokinin (NK1) (Homo sapiens, UniProt P25103); experiment: Radioligand binding, human neurokinin NK1 membranes, filtration, [125I]-Substance P; conditions: compound at 10 μM; for A8: inhibition of radioligand binding, human neurokinin (NK1): [125I]-Substance P; for A8 radioligand binding inhibition: human neurokinin NK1 membranes
T5 construct: purchased Perkin Elmer Biosignal
T5 sequence (P25103 whole entry): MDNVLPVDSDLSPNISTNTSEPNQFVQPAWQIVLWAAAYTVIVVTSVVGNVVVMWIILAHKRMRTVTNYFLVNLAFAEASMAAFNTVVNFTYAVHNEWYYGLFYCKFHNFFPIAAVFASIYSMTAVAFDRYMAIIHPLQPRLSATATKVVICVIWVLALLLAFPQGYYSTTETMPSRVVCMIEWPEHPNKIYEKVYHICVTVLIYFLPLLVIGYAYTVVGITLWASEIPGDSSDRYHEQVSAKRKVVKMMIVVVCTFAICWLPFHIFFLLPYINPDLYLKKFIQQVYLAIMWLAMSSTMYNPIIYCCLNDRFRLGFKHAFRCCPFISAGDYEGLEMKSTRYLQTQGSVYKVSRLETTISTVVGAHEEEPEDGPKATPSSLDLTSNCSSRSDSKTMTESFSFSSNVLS
Method in brief: (§2)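 Filtration binding on cloned human receptor membranes (1 Unit/well), [125I]-Substance P for NK1 and [3H]-Diprenorphine for KOP, 1 h at room temperature. Filters PEI-presoaked, washed with cold 50 mM Tris-HCl pH 7.4, counted by scintillation; percent inhibition calculated, reference ligand defining non-specific binding.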

Human δ-opioid (DOP) = molecular target: T6, Human δ-opioid (DOP) (Homo sapiens, UniProt P41143); experiment: Radioligand binding, human δ-opioid (DOP) membranes, FlashPlate, [3H]-Bremazocine; conditions: compound at 10 μM; for A1: inhibition of radioligand binding, human δ-opioid (DOP): [3H]-Bremazocine; for A1 radioligand binding inhibition: human δ-opioid (DOP) membranes
T6 construct: purchased Perkin Elmer Biosignal
T6 sequence (P41143 whole entry): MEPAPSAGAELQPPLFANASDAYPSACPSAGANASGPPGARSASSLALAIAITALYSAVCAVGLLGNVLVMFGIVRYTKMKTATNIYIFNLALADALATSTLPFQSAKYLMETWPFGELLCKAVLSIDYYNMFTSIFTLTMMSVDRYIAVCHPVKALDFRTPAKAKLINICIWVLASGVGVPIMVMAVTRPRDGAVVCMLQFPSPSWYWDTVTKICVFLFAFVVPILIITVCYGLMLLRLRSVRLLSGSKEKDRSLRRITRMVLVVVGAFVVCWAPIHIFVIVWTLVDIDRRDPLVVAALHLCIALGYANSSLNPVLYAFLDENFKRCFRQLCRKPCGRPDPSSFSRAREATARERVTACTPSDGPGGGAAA
Method in brief: as §1

Human melanocortin (MC5) = molecular target: T7, Human melanocortin (MC5) (Homo sapiens, UniProt P33032); experiment: Radioligand binding, human melanocortin MC5 membranes, FlashPlate, [125I]-NDP-αMSH; conditions: compound at 10 μM; for A5: inhibition of radioligand binding, human melanocortin (MC5): [125I]-NDP-αMSH; for A5 radioligand binding inhibition: human melanocortin MC5 membranes
T7 construct: purchased Perkin Elmer Biosignal
T7 sequence (P33032 whole entry): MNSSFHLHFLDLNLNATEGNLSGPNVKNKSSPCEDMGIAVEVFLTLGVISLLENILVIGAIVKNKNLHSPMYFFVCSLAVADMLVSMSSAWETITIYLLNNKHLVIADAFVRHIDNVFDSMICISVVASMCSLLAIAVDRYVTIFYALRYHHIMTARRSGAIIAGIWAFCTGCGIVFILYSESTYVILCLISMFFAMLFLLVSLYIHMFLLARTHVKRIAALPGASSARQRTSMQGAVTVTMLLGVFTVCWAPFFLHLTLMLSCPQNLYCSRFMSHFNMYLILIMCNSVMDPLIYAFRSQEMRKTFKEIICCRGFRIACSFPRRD
Method in brief: as §1

Human κ-Opioid (KOP) = molecular target: T8, Human κ-Opioid (KOP) (Homo sapiens, UniProt P41145); experiment: Radioligand binding, human κ-opioid (KOP) membranes, filtration, [3H]-Diprenorphine; conditions: compound at 10 μM; for A2: inhibition of radioligand binding, human κ-opioid (KOP): [3H]-Diprenorphine; for A2 radioligand binding inhibition: human κ-opioid (KOP) membranes
T8 construct: purchased Perkin Elmer Biosignal
T8 sequence (P41145 whole entry): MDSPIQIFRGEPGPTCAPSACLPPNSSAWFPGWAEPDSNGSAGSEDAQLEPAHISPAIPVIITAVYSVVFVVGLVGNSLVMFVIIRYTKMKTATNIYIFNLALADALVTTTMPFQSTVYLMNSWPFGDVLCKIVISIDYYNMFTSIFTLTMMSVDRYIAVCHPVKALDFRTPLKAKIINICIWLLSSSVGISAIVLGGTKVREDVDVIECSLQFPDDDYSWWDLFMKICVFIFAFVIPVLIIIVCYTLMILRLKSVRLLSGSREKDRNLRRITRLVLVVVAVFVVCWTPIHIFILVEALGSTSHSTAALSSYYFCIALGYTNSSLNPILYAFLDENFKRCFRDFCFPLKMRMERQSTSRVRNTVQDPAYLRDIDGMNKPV
Method in brief: as §2

[2] = molecular target: T9, Human neuropeptide Y (NPY-Y1) (Homo sapiens, UniProt P25929); experiment: Radioligand binding, human neuropeptide Y NPY-Y1 membranes, FlashPlate, [125I]-PYY; conditions: compound at 10 μM; for A9: inhibition of radioligand binding, human neuropeptide Y (NPY-Y1): [125I]-PYY; for A9 radioligand binding inhibition: human NPY-Y1 membranes
T9 construct: purchased Perkin Elmer Biosignal
T9 sequence (P25929 1-384): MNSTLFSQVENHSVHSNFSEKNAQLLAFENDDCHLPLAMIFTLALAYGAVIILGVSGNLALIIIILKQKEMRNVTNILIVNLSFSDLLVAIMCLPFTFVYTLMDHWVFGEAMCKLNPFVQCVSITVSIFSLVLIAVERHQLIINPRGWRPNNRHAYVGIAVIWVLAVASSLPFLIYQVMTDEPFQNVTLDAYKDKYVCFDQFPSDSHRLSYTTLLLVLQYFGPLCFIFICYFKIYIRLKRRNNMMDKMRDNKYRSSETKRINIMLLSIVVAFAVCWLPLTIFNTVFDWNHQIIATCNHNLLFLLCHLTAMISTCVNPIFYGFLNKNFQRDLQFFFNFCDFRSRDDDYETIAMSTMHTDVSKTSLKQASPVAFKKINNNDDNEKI
Method in brief: as §1

Human opioid (ORL1) = molecular target: T10, Human opioid (ORL1) (Homo sapiens, UniProt P41146); experiment: Radioligand binding, human opioid ORL1 membranes, FlashPlate, [125I]-Nociceptin; conditions: compound at 10 μM; for A10: inhibition of radioligand binding, human opioid (ORL1): [125I]-Nociceptin; for A10 radioligand binding inhibition: human ORL1 membranes
T10 construct: purchased Perkin Elmer Biosignal
T10 sequence (P41146 whole entry): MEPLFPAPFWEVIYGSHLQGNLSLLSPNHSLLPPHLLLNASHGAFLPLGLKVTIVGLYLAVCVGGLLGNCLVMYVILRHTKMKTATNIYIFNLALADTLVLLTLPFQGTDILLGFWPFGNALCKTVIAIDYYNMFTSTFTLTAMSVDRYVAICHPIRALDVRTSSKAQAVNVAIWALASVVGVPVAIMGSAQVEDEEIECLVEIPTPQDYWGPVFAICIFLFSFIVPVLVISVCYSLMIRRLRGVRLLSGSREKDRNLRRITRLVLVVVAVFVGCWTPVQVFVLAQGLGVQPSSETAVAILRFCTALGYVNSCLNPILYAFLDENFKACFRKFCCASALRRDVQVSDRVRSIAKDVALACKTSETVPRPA
Method in brief: as §1

Human Melanocortin (MC3) = molecular target: T11, Human Melanocortin (MC3) (Homo sapiens, UniProt P41968); experiment: Radioligand binding, human melanocortin MC3 membranes, FlashPlate, [125I]-NDP-αMSH; conditions: compound at 10 μM; for A3: inhibition of radioligand binding, human melanocortin (MC3): [125I]-NDP-αMSH; for A3 radioligand binding inhibition: human melanocortin MC3 membranes
T11 construct: purchased Perkin Elmer Biosignal
T11 sequence (P41968 whole entry): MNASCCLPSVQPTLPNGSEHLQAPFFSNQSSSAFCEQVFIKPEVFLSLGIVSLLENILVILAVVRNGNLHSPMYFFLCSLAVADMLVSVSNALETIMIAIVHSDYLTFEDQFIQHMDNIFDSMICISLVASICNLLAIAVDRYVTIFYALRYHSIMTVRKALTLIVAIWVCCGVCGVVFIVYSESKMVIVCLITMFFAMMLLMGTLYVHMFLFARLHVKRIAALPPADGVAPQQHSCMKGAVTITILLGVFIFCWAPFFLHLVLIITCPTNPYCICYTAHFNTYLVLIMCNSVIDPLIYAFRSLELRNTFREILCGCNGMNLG
Method in brief: as §1

Row | SMILES | A11: inhibition of radioligand binding, mouse urotensin (mUR2) (Mouse urotensin (mUR2)) | A4: inhibition of radioligand binding, human melanocortin (MC4) (Human Melanocortin (MC4)) | A6: inhibition of radioligand binding, human melanin-concentrating hormone (MCH1) [1] | A8: inhibition of radioligand binding, human neurokinin (NK1) (Human neurokinin (NK1)) | A1: inhibition of radioligand binding, human δ-opioid (DOP) (Human δ-opioid (DOP)) | A5: inhibition of radioligand binding, human melanocortin (MC5) (Human melanocortin (MC5)) | A2: inhibition of radioligand binding, human κ-opioid (KOP) (Human κ-Opioid (KOP)) | A9: inhibition of radioligand binding, human neuropeptide Y (NPY-Y1) [2] | A3: inhibition of radioligand binding, human melanocortin (MC3) (Human Melanocortin (MC3)) | A11 radioligand binding inhibition (Mouse urotensin (mUR2)) | A4 radioligand binding inhibition (Human Melanocortin (MC4)) | A7 radioligand binding inhibition (Human μ-opioid (MOP)) | A6 radioligand binding inhibition [1] | A8 radioligand binding inhibition (Human neurokinin (NK1)) | A1 radioligand binding inhibition (Human δ-opioid (DOP)) | A5 radioligand binding inhibition (Human melanocortin (MC5)) | A2 radioligand binding inhibition (Human κ-Opioid (KOP)) | A9 radioligand binding inhibition [2] | A10 radioligand binding inhibition (Human opioid (ORL1)) | A3 radioligand binding inhibition (Human Melanocortin (MC3)) | also measured
1 | CSC1OC(COCc2ccccc2)C(O)C(OCc2ccc3ccccc3c2)C1NC(=O)CCCNC(=N)N (stereo not drawn) [compound 305] | − (“−” indicates less than 50% inhibition at 10 μM) | − (“−” indicates less than 50% inhibition at 10 μM) | − (“−” indicates less than 50% inhibition at 10 μM) | + (“+” indicates greater than 50% inhibition at 10 μM) | − (“−” indicates less than 50% inhibition at 10 μM) | + (“+” indicates greater than 50% inhibition at 10 μM) | − (“−” indicates less than 50% inhibition at 10 μM) | − (“−” indicates less than 50% inhibition at 10 μM) | − (“−” indicates less than 50% inhibition at 10 μM) |  |  |  |  |  |  |  |  |  |  |  | A7: inhibition of radioligand binding, human μ-opioid (MOP) (Human μ-opioid (MOP)): − (“−” indicates less than 50% inhibition at 10 μM); A10: inhibition of radioligand binding, human opioid (ORL1) (Human opioid (ORL1)): − (“−” indicates less than 50% inhibition at 10 μM)
2 | COC[C@H]1OC(OCc2ccc(Cl)cc2)[C@H](NC(=O)CCCNC(=N)N)[C@@H](OCc2ccc(Cl)cc2)[C@@H]1O (stereo partly drawn) [compound 39] |  |  |  |  |  |  |  |  |  | − (“−” indicates less than 50% inhibition at 10 μM) | − (“−” indicates less than 50% inhibition at 10 μM) | − (“−” indicates less than 50% inhibition at 10 μM) | + (“+” indicates greater than 50% inhibition at 10 μM) | + (“+” indicates greater than 50% inhibition at 10 μM) | − (“−” indicates less than 50% inhibition at 10 μM) | − (“−” indicates less than 50% inhibition at 10 μM) | − (“−” indicates less than 50% inhibition at 10 μM) | − (“−” indicates less than 50% inhibition at 10 μM) | − (“−” indicates less than 50% inhibition at 10 μM) | − (“−” indicates less than 50% inhibition at 10 μM) | 
3 | NCCCC(=O)NC1C(OCc2ccc(Cl)cc2)OC(COCc2ccc(Cl)cc2)C(O)C1OCc1ccccc1 (single isomer, unassigned) [compound 505] | − (“−” indicates less than 50% inhibition at 10 μM) | − (“−” indicates less than 50% inhibition at 10 μM) | − (“−” indicates less than 50% inhibition at 10 μM) | + (“+” indicates greater than 50% inhibition at 10 μM) | − (“−” indicates less than 50% inhibition at 10 μM) | + (“+” indicates greater than 50% inhibition at 10 μM) | − (“−” indicates less than 50% inhibition at 10 μM) | − (“−” indicates less than 50% inhibition at 10 μM) | − (“−” indicates less than 50% inhibition at 10 μM) |  |  |  |  |  |  |  |  |  |  |  | A7: inhibition of radioligand binding, human μ-opioid (MOP) (Human μ-opioid (MOP); 10 µM): + (“+” indicates greater than 50% inhibition at 10 μM); A10: inhibition of radioligand binding, human opioid (ORL1) (Human opioid (ORL1); 10 µM): − (“−” indicates less than 50% inhibition at 10 μM)
4 | COC[C@H]1OC(OCc2ccc3ccccc3c2)[C@H](NC(=O)CCCNC(=N)N)[C@@H](OCc2ccccc2)[C@@H]1O (stereo partly drawn) [compound 21] |  |  |  |  |  |  |  |  |  | − (“−” indicates less than 50% inhibition at 10 μM) | − (“−” indicates less than 50% inhibition at 10 μM) | − (“−” indicates less than 50% inhibition at 10 μM) | − (“−” indicates less than 50% inhibition at 10 μM) | + (“+” indicates greater than 50% inhibition at 10 μM) | − (“−” indicates less than 50% inhibition at 10 μM) | − (“−” indicates less than 50% inhibition at 10 μM) | − (“−” indicates less than 50% inhibition at 10 μM) | − (“−” indicates less than 50% inhibition at 10 μM) | − (“−” indicates less than 50% inhibition at 10 μM) | − (“−” indicates less than 50% inhibition at 10 μM) | 
5 | COC[C@H]1OC(OCc2ccc(-c3ccccc3)cc2)[C@H](NC(=O)CCCN)[C@@H](OCc2ccc(Cl)cc2)[C@@H]1O (stereo partly drawn) [compound 12] |  |  |  |  |  |  |  |  |  | − (“−” indicates less than 50% inhibition at 10 μM) | − (“−” indicates less than 50% inhibition at 10 μM) | − (“−” indicates less than 50% inhibition at 10 μM) | − (“−” indicates less than 50% inhibition at 10 μM) | + (“+” indicates greater than 50% inhibition at 10 μM) | − (“−” indicates less than 50% inhibition at 10 μM) | − (“−” indicates less than 50% inhibition at 10 μM) | − (“−” indicates less than 50% inhibition at 10 μM) | − (“−” indicates less than 50% inhibition at 10 μM) | − (“−” indicates less than 50% inhibition at 10 μM) | − (“−” indicates less than 50% inhibition at 10 μM) | 
6 | COC[C@H]1OC(OCCc2ccccc2)[C@H](NC(=O)CNC(=N)N)[C@@H](OCc2ccc(-c3ccccc3)cc2)[C@@H]1O (stereo partly drawn) [compound 40] |  |  |  |  |  |  |  |  |  | − (“−” indicates less than 50% inhibition at 10 μM) | + (“+” indicates greater than 50% inhibition at 10 μM) | − (“−” indicates less than 50% inhibition at 10 μM) | + (“+” indicates greater than 50% inhibition at 10 μM) | − (“−” indicates less than 50% inhibition at 10 μM) | − (“−” indicates less than 50% inhibition at 10 μM) | + (“+” indicates greater than 50% inhibition at 10 μM) | − (“−” indicates less than 50% inhibition at 10 μM) | − (“−” indicates less than 50% inhibition at 10 μM) | − (“−” indicates less than 50% inhibition at 10 μM) | + (“+” indicates greater than 50% inhibition at 10 μM) | 
